In the NIST ThermoML archive (doi:10.1021/acs.jced.8b00452):
Several values for one entry are separate records, joined by “and”; a condition that tells them apart may be missing. Identical values can stand only once. ± gives the expanded uncertainty stated by the source.

Settings: isochoric method

C=CC(F)(F)F [1,1,1-trifluoro-2-propene]
Settings	mass density [kg/m3]
328 K, 2263.6 kPa, Liquid	899.4 ± 1.4
330 K, 1111.5 kPa, Gas	50 ± 0.2
330 K, 3005.2 kPa, Liquid	899.2 ± 1.4
333 K, 4120.1 kPa, Liquid	899 ± 1.4
335 K, 4863.3 kPa, Liquid	898.9 ± 1.4
338 K, 5981.5 kPa, Liquid	898.8 ± 1.4
340 K, 1167.6 kPa, Gas	49.9 ± 0.1
340 K, 6726 kPa, Liquid	898.7 ± 1.4
348 K, 2175.9 kPa, Liquid	796.5 ± 1.2
349 K, 2433.4 kPa, Liquid	796.4 ± 1.2
350 K, 1222.4 kPa, Gas	49.9 ± 0.1
350 K, 2692.4 kPa, Liquid	796.4 ± 1.2
351 K, 2951.1 kPa, Liquid	796.4 ± 1.2
352 K, 3211.8 kPa, Liquid	796.4 ± 1.2
353 K, 3472 kPa, Liquid	796.3 ± 1.2
354 K, 3732.3 kPa, Liquid	796.3 ± 1.2
355 K, 2036.4 kPa, Gas	99.8 ± 0.2
355 K, 3993.5 kPa, Liquid	796.3 ± 1.2
356 K, 4255.7 kPa, Liquid	796.3 ± 1.2
357 K, 4517.5 kPa, Liquid	796.2 ± 1.2
358 K, 4781.3 kPa, Liquid	796.2 ± 1.2
360 K, 1276.2 kPa, Gas	49.9 ± 0.1
360 K, 2101.2 kPa, Gas	99.8 ± 0.2
360 K, 5309.1 kPa, Liquid	796.2 ± 1.2
362 K, 5836.4 kPa, Liquid	796.1 ± 1.2
364 K, 2872 kPa, Fluid (supercritical or subcritical phases)	699.8 ± 1.1
364 K, 6364.7 kPa, Liquid	796.1 ± 1.2
366 K, 3226.1 kPa, Fluid (supercritical or subcritical phases)	699.8 ± 1.1
366 K, 6895.5 kPa, Liquid	796 ± 1.2
368 K, 3583.4 kPa, Fluid (supercritical or subcritical phases)	699.7 ± 1.1
370 K, 1329.2 kPa, Gas	49.9 ± 0.1
370 K, 2227.8 kPa, Gas	99.8 ± 0.2
370 K, 3943.7 kPa, Fluid (supercritical or subcritical phases)	699.7 ± 1.1
372 K, 4306.9 kPa, Fluid (supercritical or subcritical phases)	699.7 ± 1.1
374 K, 4672.5 kPa, Fluid (supercritical or subcritical phases)	699.6 ± 1.1
376 K, 5040.5 kPa, Fluid (supercritical or subcritical phases)	699.6 ± 1.1
378 K, 5410 kPa, Fluid (supercritical or subcritical phases)	699.5 ± 1.1
379 K, 3659.3 kPa, Gas	408.6 ± 0.9
380 K, 1381.9 kPa, Gas	49.9 ± 0.1
380 K, 2351.3 kPa, Gas	99.8 ± 0.2
380 K, 3350.9 kPa, Gas	199.9 ± 0.4
380 K, 3727.7 kPa, Gas	408.6 ± 0.8
380 K, 5781.1 kPa, Fluid (supercritical or subcritical phases)	699.5 ± 1.1
382 K, 6153.3 kPa, Fluid (supercritical or subcritical phases)	699.5 ± 1.1
384 K, 6527.3 kPa, Fluid (supercritical or subcritical phases)	699.4 ± 1.1
385 K, 3499.4 kPa, Gas	199.9 ± 0.5
385 K, 4070.4 kPa, Gas	408.5 ± 0.7
386 K, 6902.3 kPa, Fluid (supercritical or subcritical phases)	699.4 ± 1.1
390 K, 1433.6 kPa, Gas	49.9 ± 0.1
390 K, 2472.5 kPa, Gas	99.7 ± 0.2
390 K, 3645.5 kPa, Gas	199.8 ± 0.4
390 K, 4415.7 kPa, Gas	408.4 ± 0.7
395 K, 3789.8 kPa, Gas	199.8 ± 0.4
395 K, 4762.2 kPa, Gas	408.3 ± 0.7
400 K, 1484.4 kPa, Gas	49.8 ± 0.1
400 K, 2591.1 kPa, Gas	99.7 ± 0.2
400 K, 3931.9 kPa, Gas	199.7 ± 0.3
400 K, 5109.3 kPa, Gas	408.2 ± 0.6
405 K, 4073 kPa, Gas	199.7 ± 0.3
405 K, 5458.7 kPa, Gas	408.1 ± 0.6
410 K, 1534.9 kPa, Gas	49.8 ± 0.1
410 K, 2708 kPa, Gas	99.6 ± 0.2
410 K, 4212.5 kPa, Gas	199.6 ± 0.3
410 K, 5806.1 kPa, Gas	407.9 ± 0.6
415 K, 4350.8 kPa, Gas	199.5 ± 0.3
415 K, 6157.7 kPa, Gas	407.7 ± 0.6
420 K, 1584.7 kPa, Gas	49.7 ± 0.1
420 K, 2823 kPa, Gas	99.5 ± 0.2
420 K, 4487.8 kPa, Gas	199.4 ± 0.3
420 K, 6507.1 kPa, Gas	407.5 ± 0.6
425 K, 4623.8 kPa, Gas	199.2 ± 0.3
425 K, 6857.2 kPa, Gas	407.2 ± 0.6
430 K, 1633.5 kPa, Gas	49.7 ± 0.1
430 K, 2936 kPa, Gas	99.3 ± 0.2
430 K, 4758.7 kPa, Gas	199.1 ± 0.3

mass density
Settings	Gas	Liquid
360.73 K	–	723.7 ± 0.3 kg/m3
366.5 K	182.7 ± 3 kg/m3	–
369.78 K	205.8 ± 3 kg/m3	–
369.83 K	–	644 ± 0.3 kg/m3
371.67 K	231.2 ± 3 kg/m3	–
371.85 K	–	616.3 ± 0.3 kg/m3
374.16 K	–	571.5 ± 0.5 kg/m3
374.31 K	255.3 ± 3 kg/m3	–
375.35 K	287.6 ± 3 kg/m3	–
376.38 K	–	508.8 ± 1.2 kg/m3
376.41 K	323.1 ± 3.1 kg/m3	–
376.87 K	–	451.6 ± 5.7 kg/m3
376.93 K	408.8 ± 3.4 kg/m3 and 414.2 ± 3.5 kg/m3	414.2 ± 5.7 kg/m3
